Legend:
MU89 melanoma cell line = assay: Antibody staining and flow cytometry (intracellular Melan-A/MART-1, gp100, TRP-2; surface MHC Class I/II); format: cell-based, human; conditions: MU89
Description: (§1) Cells were fixed with 1% formaldehyde, permeabilized with 0.1% saponin, stained with monoclonal antibodies to melanocyte antigens. Antibodies were obtained with specificity for: MART-1 from Vector Labs (Burlingame, Calif.); gp100 HMB45 from DakoCytomation (Carpinteria, Calif.) and then visualized with goat anti-mouse FITC-conjugated secondary antibody from Invitrogen (Fredrick, Md.). The level of EGFP was determined by flow cytometry of unfixed cells that were washed and resuspended in 1×PBS.
(§2) Cells were plated at a density of 1×10^5 in 1 ml of medium in a 24-well plate and cultured for varying times as indicated in results. […] After incubation, cells were collected by trypsinization and then evaluated by flow cytometry.
(§3) Intracellular staining and flow cytometric analyses of cytoplasmic Melan-A/MART-1, and gp100 expression were performed as described previously. Cells were fixed with 1% formaldehyde, permeabilized with 0.1% saponin, stained with monoclonal antibodies to melanocyte antigens. Antibodies were obtained with specificity for: Melan-A/MART-1 from Vector Labs (Burlingame, Calif.); gp100/HMB45 from DakoCytomation (Carpinteria, Calif.) and then visualized with goat anti-mouse FITC-conjugated secondary antibody from Invitrogen (Frederick, Md.). The level of EGFP was determined by flow cytometry of unfixed cells washed and resuspended in 1×PBS. Surface staining of MHC Class I was carried out using the antibody W6/32 on cells harvested with Cell Stripper from MediaTech Inc. (Manassas, Va.) and carried out on ice.
(§4) Cell were seeded at 1×10^6 cells in a T25 flask with 10 ml of media for the 4 day IFN-beta pre-treatments. Cells were then harvested and plated in 24 well plate at 1×10^5 cells per well in 1 ml of media for 3 day treatments.
(§5) For surface staining of HLA Class I and II antigens, cells were harvested using CellStripper™ from Mediatech (Manassas, Va.). All staining steps were performed on ice. Following a first incubation with antibody to Class I (W6/32) or Class II (L243) for 30 minutes. Stained cells were washed twice with cold PBS and then stained with a goat anti-mouse FITC secondary antibody to allow for quantitative analysis by flow cytometry. For evaluation of cytoplasmic antigens, including Melan-A/MART-1 and gp100, cells were first fixed in paraformaldehyde and permeabilized with saponin as previously described. Staining for cytoplasmic antigens was carried out at room temperature (22° C.).

A375 melanoma cell line = assay: Antibody staining and flow cytometry (intracellular Melan-A/MART-1, gp100, TRP-2; surface MHC Class I); format: cell-based, human
Description: as §1, §2, §3, §4, §5

MUX melanoma cell line = assay: as above; format: cell-based, human; conditions: MUX
Description: as §1, §2, §3, §4, §5

[1] = tested on: B16 murine melanoma cell line; assay: Antibody staining and flow cytometry (intracellular gp100, TRP-2; surface Class I with H2kb antibody); format: cell-based, mouse; conditions: 3 days, 17-AEP 0.5, PU-H71 0.15, CCT018159 2.5 μg/ml
From the text: To further evaluate enhancement of immune recognition of cancer cells by inhibition of Hsp90 function, it was shown that a total of twelve different Hsp90 inhibitors were active in several molecular and cellular assays on a series of cell lines, including eleven human melanomas, the murine B16 melanoma, and two human gliomas. […] The melanomas all express varying levels of differentiation antigens Melan-A/MART-1, gp100 and TRP-2, as well as the MHC-Class I antigen (as evidenced by W6/32 antibody staining) that is required for T cell recognition of the tumor cells. Each of these antigens is enhanced by all of the Hsp90 inhibitors. […] Similar to the human counterparts, the B16 mouse tumor also can be induced to express enhanced antigen levels upon 3-day exposure to each of the Hsp90 inhibitors (Table 16). The mouse H-2 Class I antigen is likewise induced by the Hsp90 inhibitors.
General culture conditions for cell propagation and the origins of most of the melanoma cell lines have been previously described. Melanoma cells were cultured in DMEM with 10% FBS. The glioma cell lines U87 MG and U118 MG were obtained from the American Type Culture Collection (ATCC). The B16 murine melanoma cell line was provided by Dr. Andrew Hurwitz and has been previously described. The T cell receptor (TCR)-negative Jurkat T cell line derivative J.RT3-T3.5 was obtained from ATCC. The construction of the J.RT3-T3.5 cell line expressing a Melan-A/MART-1 specific TCR has been described previously. T cells were cultured in RPMI with 10% FBS. IFN-beta-1a (Avonex) was obtained from Biogen-Idec (Cambridge, Mass.) and reconstituted according to the manufacturer's recommendations. The Hsp90 inhibitor radicicol was purchased from A.G. Scientific (San Diego, Calif.). Novobiocin was ordered from BioMol (Plymouth Meeting, Pa.). 17-DMAG was obtained from LC laboratories (Woburn, Mass.). 17-AEP-AP was purchased from InVivoGen (San Diego, Calif.). […] Gedunin, CCT018159, and celastrol were purchased from Tocris (Ellisville, Mo.). Selleck Chemicals (Houston, Tex.) provided NVP-AUY922 and BIIB021.
Cells were plated at a density of 1×10^5 in 1 ml of medium in a 24-well plate and cultured for varying times as indicated in results. Typically, 3 days of culture in the presence of Hsp90 inhibitors was optimal for the functional studies performed. After incubation, cells were collected by trypsinization and then evaluated by flow cytometry.
as §3

[2] = 3 days, IFN-beta 5000 Units/ml, 17-AEP 1.0, PU-H71 0.3, CCT018159 10.0 μg/ml
[3] = 4 day IFN-β pre-treatment (5000 Units/ml), then 3 days with fresh IFN-β and the labelled HSP90 inhibitor (label IFN-β: no inhibitor), 17-AEP 1, PU-H71 0.3, CCT018159 10 mg/ml
[4] = 4 day IFN-β pre-treatment (5000 Units/ml), then 3 days without IFN-β with the labelled HSP90 inhibitor (label IFN-β: no inhibitor), 17-AEP 1, PU-H71 0.3, CCT018159 10 mg/ml
[5] = 3 days, IFN-beta 5000 Units/ml, 17-AEP 0.5, PU-H71 0.15, CCT018159 2.5 μg/ml

CO[C@H]1/C=C\C=C(/C)C(=O)NC2=CC(=O)C(NCCN3CCCC3)=C(C[C@@H](C)C[C@H](OC)[C@H](O)[C@@H](C)/C=C(\C)[C@@H]1OC(N)=O)C2=O [17-AEP]
Class I, geometric mean of surface staining (W6/32) (MU89 melanoma cell line; [2]): 54
MART-1, geometric mean of intracellular staining (MU89 melanoma cell line; [2]): 130
TRP-2, geometric mean of intracellular staining (MU89 melanoma cell line; [2]): 144
gp100, geometric mean of intracellular staining (MU89 melanoma cell line; [2]): 342
MHC Class I, geometric mean of surface staining (W6/32) (MU89 melanoma cell line; [3]): 227
MHC Class I, geometric mean of surface staining (W6/32) (MU89 melanoma cell line; [4]): 86
MHC Class I, geometric mean of surface staining (W6/32) (MU89 melanoma cell line; single agent for 3 days, no IFN-β pre-treatment, IFN-β 5000 Units/ml): 84
MHC Class I, geometric mean of surface staining (W6/32) (MU89 melanoma cell line; three days, IFN-β 5000 Units/ml): 54
Class I, geometric mean of surface staining (W6/32) (A375 melanoma cell line; [5]): 67
MART-1, geometric mean of intracellular staining (A375 melanoma cell line; [5]): 11
TRP-2, geometric mean of intracellular staining (A375 melanoma cell line; [5]): 31
gp100, geometric mean of intracellular staining (A375 melanoma cell line; [5]): 22
MHC Class I, geometric mean of surface staining (W6/32) (A375 melanoma cell line; 4 day IFN-β pre-treatment (5000 Units/ml), then 3 days with fresh IFN-β and the labelled HSP90 inhibitor (label IFN-β: no inhibitor), 17-AEP 0.5, PU-H71 0.15, CCT018159 2.5): 144
MHC Class I, geometric mean of surface staining (W6/32) (A375 melanoma cell line; 4 day IFN-β pre-treatment (5000 Units/ml), then 3 days without IFN-β with the labelled HSP90 inhibitor (label IFN-β: no inhibitor), 17-AEP 0.5, PU-H71 0.15, CCT018159 2.5): 90
MHC Class I, geometric mean of surface staining (W6/32) (A375 melanoma cell line; single agent for 3 days, no IFN-β pre-treatment, IFN-β 5000 Units/ml, 17-AEP 0.5, PU-H71 […], CCT018159 2.5): 109
MHC Class I, geometric mean of surface staining (W6/32) (A375 melanoma cell line; three days, IFN-β 5000 Units/ml, 17-AEP 0.5, PU-H71 […], CCT018159 2.5): 67
Class I, geometric mean of surface staining (W6/32) (MUX melanoma cell line; [2]): 219
MART-1, geometric mean of intracellular staining (MUX melanoma cell line; [2]): 19
TRP-2, geometric mean of intracellular staining (MUX melanoma cell line; [2]): 48
gp100, geometric mean of intracellular staining (MUX melanoma cell line; [2]): 34
MHC Class I, geometric mean of surface staining (W6/32) (MUX melanoma cell line; [3]): 615
MHC Class I, geometric mean of surface staining (W6/32) (MUX melanoma cell line; [4]): 496
MHC Class I, geometric mean of surface staining (W6/32) (MUX melanoma cell line; single agent for 3 days, no IFN-β pre-treatment, IFN-β 5000 Units/ml, 17-AEP 1 μg/ml, PU-H71 0.3 μg/ml, CCT018159 10 μg/ml): 286
Class I, geometric mean of surface staining (H2kb) [1]: 13
TRP-2, geometric mean of intracellular staining [1]: 288
gp100, geometric mean of intracellular staining [1]: 420

— US20140335050A1, “METHODS, COMPOSITIONS, AND KITS FOR THE TREATMENT OF CANCER” (The General Hospital Corporation, priority 2011, published 2014)
